Source: patent US6355799B1, “Substituted benzene compounds, process for their preparation, and herbicidal and defoliant compositions containing them” (ISK Americas Incorporated, priority 1997, dated 2002)

How the values were obtained:
Type in all cases: in vivo
[1] = test system: johnsongrass (Sorghum halepense, SORHA); assay: Pre-emerge test, greenhouse herbicide activity screening; conditions: for Pre-emerge Herbicidal Activity, phytotoxicity rating (0-100), SORHA: rated 14 days after application, 0 = no damage, 100 = complete death; for phytotoxicity rating SORHA: pre-emerge, 14 days after application, scale 0-100
Outline: (§1)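 Visual ratings on a 0-100 scale (0 no damage, 100 all plants dead) were taken at 14 days after treatment. Rates of 15-1000 g ai/ha in acetone, 187 l/ha, were sprayed onto soil one day after planting (pre-emerge) or onto 2-3 leaf plants with 0.25% v/v surfactant (post-emerge).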

[2] = test system: green foxtail (Setaria viridis, SETVI); assay: as above; conditions: for Pre-emerge Herbicidal Activity, phytotoxicity rating (0-100), SETVI: rated 14 days after application, 0 = no damage, 100 = complete death; for phytotoxicity rating SETVI: pre-emerge, 14 days after application, scale 0-100
Outline: as §1

[3] = test system: large crabgrass (Digitaria sanguinalis, DIGSA); assay: as above; conditions: for Pre-emerge Herbicidal Activity, phytotoxicity rating (0-100), DIGSA: rated 14 days after application, 0 = no damage, 100 = complete death; for phytotoxicity rating DIGSA: pre-emerge, 14 days after application, scale 0-100
Outline: as §1

[4] = test system: barnyardgrass (Echinochloa crus-galli, ECHCG); assay: as above; conditions: for Pre-emerge Herbicidal Activity, phytotoxicity rating (0-100), ECHCG: rated 14 days after application, 0 = no damage, 100 = complete death; for phytotoxicity rating ECHCG: pre-emerge, 14 days after application, scale 0-100
Outline: as §1

[5] = test system: velvetleaf (Abutilon theophrasti, ABUTH); assay: as above; conditions: for Pre-emerge Herbicidal Activity, phytotoxicity rating (0-100), ABUTH: rated 14 days after application, 0 = no damage, 100 = complete death; for phytotoxicity rating ABUTH: pre-emerge, 14 days after application, scale 0-100
Outline: as §1

[6] = test system: lambsquarters (Chenopodium album, CHEAL); assay: as above; conditions: for Pre-emerge Herbicidal Activity, phytotoxicity rating (0-100), CHEAL: rated 14 days after application, 0 = no damage, 100 = complete death; for phytotoxicity rating CHEAL: pre-emerge, 14 days after application, scale 0-100
Outline: as §1

[7] = test system: sicklepod (Cassia obtusifolia, CASOB); assay: as above; conditions: for Pre-emerge Herbicidal Activity, phytotoxicity rating (0-100), CASOB: rated 14 days after application, 0 = no damage, 100 = complete death; for phytotoxicity rating CASOB: pre-emerge, 14 days after application, scale 0-100
Outline: as §1

[8] = test system: ivyleaf morningglory (Ipomoea hederacea, IPOHE); assay: as above; conditions: for Pre-emerge Herbicidal Activity, phytotoxicity rating (0-100), IPOHE: rated 14 days after application, 0 = no damage, 100 = complete death; for phytotoxicity rating IPOHE: pre-emerge, 14 days after application, scale 0-100
Outline: as §1

[9] = test system: johnsongrass (Sorghum halepense, SORHA); assay: Post-emerge test, greenhouse herbicide activity screening; conditions: post-emerge, 14 days after application, rating scale 0-100
Outline: (§2)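 Compounds in acetone were track-sprayed at 15–1000 g ai/ha: pre-emergence onto soil sown the previous day, then top-watered to incorporate and later bottom-watered; post-emergence onto 2–3 leaf plants with 0.25% v/v surfactant, bottom-watered only. Ratings on a 0–100 phytotoxicity scale were taken at day 14.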

[10] = test system: green foxtail (Setaria viridis, SETVI); assay: as above; conditions: post-emerge, 14 days after application, rating scale 0-100
Outline: as §2

[11] = test system: large crabgrass (Digitaria sanguinalis, DIGSA); assay: as above; conditions: post-emerge, 14 days after application, rating scale 0-100
Outline: as §2

[12] = test system: barnyardgrass (Echinochloa crus-galli, ECHCG); assay: as above; conditions: post-emerge, 14 days after application, rating scale 0-100
Outline: as §2

[13] = test system: velvetleaf (Abutilon theophrasti, ABUTH); assay: as above; conditions: post-emerge, 14 days after application, rating scale 0-100
Outline: as §2

[14] = test system: lambsquarters (Chenopodium album, CHEAL); assay: as above; conditions: post-emerge, 14 days after application, rating scale 0-100
Outline: as §2

[15] = test system: sicklepod (Cassia obtusifolia, CASOB); assay: as above; conditions: post-emerge, 14 days after application, rating scale 0-100
Outline: as §2

[16] = test system: redroot pigweed (Amaranthus retroflexus, AMARE); assay: as above; conditions: post-emerge, 14 days after application, rating scale 0-100
Outline: as §2

[17] = test system: ivyleaf morningglory (Ipomoea hederacea, IPOHE); assay: as above; conditions: post-emerge, 14 days after application, rating scale 0-100
Outline: as §2

[18] = test system: field corn (Zea mays L., var. Dekalb 535, CORN); assay: Pre-emerge test, crop safety; conditions: for Pre-emerge phytotoxicity rating (0-100), crop damage, CORN: rated 14 days after application, 0 = no damage, 100 = complete death; for phytotoxicity rating CORN (crop damage): pre-emerge, 14 days after application, scale 0-100
Outline: (§3)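 Herbicidal damage is scored 0 (none) to 100 (complete plant death) two weeks after a simulated field spray. Rates span 15–1000 g ai/ha, delivered in acetone at 187 l/ha. For post-emergence treatments, plants have 2–3 leaves and the spray carries 0.25% v/v non-ionic surfactant.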

[19] = test system: upland rice (Oryza sp., var. Tebonnet, RICE); assay: Pre-emerge test, crop safety; conditions: for Pre-emerge phytotoxicity rating (0-100), crop damage, RICE: rated 14 days after application, 0 = no damage, 100 = complete death; for phytotoxicity rating RICE (crop damage): pre-emerge, 14 days after application, scale 0-100
Outline: as §3

[20] = test system: redroot pigweed (Amaranthus retroflexus, AMARE); assay: Pre-emerge test, greenhouse herbicide activity screening; conditions: for Pre-emerge Herbicidal Activity, phytotoxicity rating (0-100), AMARE: rated 14 days after application, 0 = no damage, 100 = complete death; for phytotoxicity rating AMARE: pre-emerge, 14 days after application, scale 0-100
Outline: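 Sandy loam pots; pre-emerge: sown 1 d pre-spray, surface-watered after, then bottom-watered. Post-emerge: sown 8–21 d before, 2–3 leaf stage, + 0.25% v/v NIS, bottom-watered. Acetone, 187 l/ha track spray, 15–1000 g ai/ha. 0–100 injury score, day 14.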

[21] = test system: field corn (Zea mays L., var. Dekalb 535, CORN); assay: Post-emerge test, crop safety; conditions: post-emerge, 14 days after application, rating scale 0-100
Outline: as §1

[22] = test system: upland rice (Oryza sp., var. Tebonnet, RICE); assay: Post-emerge test, crop safety; conditions: post-emerge, 14 days after application, rating scale 0-100
Outline: as §1

Cn1c(C(F)(F)F)cc(=O)n(-c2c(F)cc(Cl)c(OCC#N)c2N(C(=O)c2ccc(F)cc2F)C(=O)c2ccc(F)cc2F)c1=O [2-45]
Pre-emerge Herbicidal Activity, phytotoxicity rating (0-100), SORHA ([1]; 63 g ai/ha): 0
Pre-emerge Herbicidal Activity, phytotoxicity rating (0-100), SORHA ([1]; 250 g ai/ha): 0
Pre-emerge Herbicidal Activity, phytotoxicity rating (0-100), SETVI ([2]; 63 g ai/ha): 0
Pre-emerge Herbicidal Activity, phytotoxicity rating (0-100), SETVI ([2]; 250 g ai/ha): 30
Pre-emerge Herbicidal Activity, phytotoxicity rating (0-100), DIGSA ([3]; 63 g ai/ha): 0
Pre-emerge Herbicidal Activity, phytotoxicity rating (0-100), DIGSA ([3]; 250 g ai/ha): 0
Pre-emerge Herbicidal Activity, phytotoxicity rating (0-100), ECHCG ([4]; 63 g ai/ha): 00
Pre-emerge Herbicidal Activity, phytotoxicity rating (0-100), ECHCG ([4]; 250 g ai/ha): 0
Pre-emerge Herbicidal Activity, phytotoxicity rating (0-100), ABUTH ([5]; 63 g ai/ha): 0
Pre-emerge Herbicidal Activity, phytotoxicity rating (0-100), ABUTH ([5]; 250 g ai/ha): 70
Pre-emerge Herbicidal Activity, phytotoxicity rating (0-100), CHEAL ([6]; 63 g ai/ha): 60
Pre-emerge Herbicidal Activity, phytotoxicity rating (0-100), CHEAL ([6]; 250 g ai/ha): 90
Pre-emerge Herbicidal Activity, phytotoxicity rating (0-100), CASOB ([7]; 63 g ai/ha): 0
Pre-emerge Herbicidal Activity, phytotoxicity rating (0-100), CASOB ([7]; 250 g ai/ha): 0
Pre-emerge Herbicidal Activity, phytotoxicity rating (0-100), IPOHE ([8]; 63 g ai/ha): 0
Pre-emerge Herbicidal Activity, phytotoxicity rating (0-100), IPOHE ([8]; 250 g ai/ha): 0
phytotoxicity rating SORHA ([9]; 63 g ai/ha): 0
phytotoxicity rating SORHA ([9]; 250 g ai/ha): 0
phytotoxicity rating SETVI ([10]; 63 g ai/ha): 0
phytotoxicity rating SETVI ([10]; 250 g ai/ha): 40
phytotoxicity rating DIGSA ([11]; 63 g ai/ha): 0
phytotoxicity rating DIGSA ([11]; 250 g ai/ha): 0
phytotoxicity rating ECHCG ([12]; 63 g ai/ha): 0
phytotoxicity rating ECHCG ([12]; 250 g ai/ha): 0
phytotoxicity rating ABUTH ([13]; 63 g ai/ha): 30
phytotoxicity rating ABUTH ([13]; 250 g ai/ha): 40
phytotoxicity rating CHEAL ([14]; 63 g ai/ha): 30
phytotoxicity rating CHEAL ([14]; 250 g ai/ha): 30
phytotoxicity rating CASOB ([15]; 63 g ai/ha): 0
phytotoxicity rating CASOB ([15]; 250 g ai/ha): 20
phytotoxicity rating AMARE ([16]; 63 g ai/ha): 10
phytotoxicity rating AMARE ([16]; 250 g ai/ha): 20
phytotoxicity rating IPOHE ([17]; 63 g ai/ha): 20
phytotoxicity rating IPOHE ([17]; 250 g ai/ha): 30
Pre-emerge phytotoxicity rating (0-100), crop damage, CORN ([18]; 63 g ai/ha): 0
Pre-emerge phytotoxicity rating (0-100), crop damage, CORN ([18]; 250 g ai/ha): 0
Pre-emerge phytotoxicity rating (0-100), crop damage, RICE ([19]; 63 g ai/ha): 0
Pre-emerge phytotoxicity rating (0-100), crop damage, RICE ([19]; 250 g ai/ha): 0
Pre-emerge Herbicidal Activity, phytotoxicity rating (0-100), AMARE ([20]; 63 g ai/ha): 70
Pre-emerge Herbicidal Activity, phytotoxicity rating (0-100), AMARE ([20]; 250 g ai/ha): 100
phytotoxicity rating CORN ([21]; 63 g ai/ha): 0
phytotoxicity rating CORN ([21]; 250 g ai/ha): 5
phytotoxicity rating RICE ([22]; 63 g ai/ha): 0
phytotoxicity rating RICE ([22]; 250 g ai/ha): 10

COc1c(Cl)cc(F)c(-n2c(=O)cc(C(F)(F)F)n(C)c2=O)c1NC(=O)C=Cc1cccc(Cl)c1 [2-134]
phytotoxicity rating SORHA ([1]; 63 g ai/ha): 0
phytotoxicity rating SORHA ([1]; 250 g ai/ha): 30
phytotoxicity rating SETVI ([2]; 63 g ai/ha): 35
phytotoxicity rating SETVI ([2]; 250 g ai/ha): 80
phytotoxicity rating DIGSA ([3]; 63 g ai/ha): 20
phytotoxicity rating DIGSA ([3]; 250 g ai/ha): 90
phytotoxicity rating ECHCG ([4]; 63 g ai/ha): 0
phytotoxicity rating ECHCG ([4]; 250 g ai/ha): 30
phytotoxicity rating ABUTH ([5]; 63 g ai/ha): 60
phytotoxicity rating ABUTH ([5]; 250 g ai/ha): 80
phytotoxicity rating CHEAL ([6]; 63 g ai/ha): 100
phytotoxicity rating CHEAL ([6]; 250 g ai/ha): 100
phytotoxicity rating CASOB ([7]; 63 g ai/ha): 10
phytotoxicity rating CASOB ([7]; 250 g ai/ha): 30
phytotoxicity rating IPOHE ([8]; 63 g ai/ha): 20
phytotoxicity rating IPOHE ([8]; 250 g ai/ha): 30
SORHA phytotoxicity rating ([9]; 63 g ai/ha): 10
SORHA phytotoxicity rating ([9]; 250 g ai/ha): 30
SETVI phytotoxicity rating ([10]; 63 g ai/ha): 20
SETVI phytotoxicity rating ([10]; 250 g ai/ha): 60
DIGSA phytotoxicity rating ([11]; 63 g ai/ha): 0
DIGSA phytotoxicity rating ([11]; 250 g ai/ha): 30
ECHCG phytotoxicity rating ([12]; 63 g ai/ha): 10
ECHCG phytotoxicity rating ([12]; 250 g ai/ha): 30
ABUTH phytotoxicity rating ([13]; 63 g ai/ha): 100
ABUTH phytotoxicity rating ([13]; 250 g ai/ha): 100
CHEAL phytotoxicity rating ([14]; 63 g ai/ha): 100
CHEAL phytotoxicity rating ([14]; 250 g ai/ha): 100
CASOB phytotoxicity rating ([15]; 63 g ai/ha): 90
CASOB phytotoxicity rating ([15]; 250 g ai/ha): 100
AMARE phytotoxicity rating ([16]; 63 g ai/ha): 100
AMARE phytotoxicity rating ([16]; 250 g ai/ha): 100
IPOHE phytotoxicity rating ([17]; 63 g ai/ha): 100
IPOHE phytotoxicity rating ([17]; 250 g ai/ha): 100
phytotoxicity rating CORN (crop damage) ([18]; 63 g ai/ha): 0
phytotoxicity rating CORN (crop damage) ([18]; 250 g ai/ha): 0
phytotoxicity rating RICE (crop damage) ([19]; 63 g ai/ha): 10
phytotoxicity rating RICE (crop damage) ([19]; 250 g ai/ha): 20
phytotoxicity rating AMARE ([20]; 63 g ai/ha): 100
phytotoxicity rating AMARE ([20]; 250 g ai/ha): 100
CORN phytotoxicity rating (crop damage) ([21]; 63 g ai/ha): 10
CORN phytotoxicity rating (crop damage) ([21]; 250 g ai/ha): 20
RICE phytotoxicity rating (crop damage) ([22]; 63 g ai/ha): 50
RICE phytotoxicity rating (crop damage) ([22]; 250 g ai/ha): 80
